Test results from patent US9051310B2, “Nicotinamide derivative or salt thereof” (FUJIFILM Corporation, priority 2011, dated 2015).

Tests used:
[1] = biological target: T1, glutathione S-transferase (GST)-linked full-length human Syk protein (Homo sapiens, UniProt P43405); assay: Syk enzyme assay; type: biochemical; conditions: 0.83 nM Syk, time-resolved fluorescence; read-out: IC50 of Syk-inhibitory activity
T1 construct: glutathione S-transferase (GST)-linked full-length human Syk protein; purchased Carna Biosciences; host or cells: Baculovirus expression system
Method in brief: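 Phosphotyrosine on a biotin-peptide substrate (0.5 μM) was read by time-resolved fluorescence at 615 and 665 nm with Eu-anti-pTyr antibody and APC-streptavidin after 1 h EDTA stop.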

[2] = system: THP-1 cells (phagocytosis of opsonized Escherichia coli); assay: Antibody-dependent phagocytosis assay; type: cell-based; conditions: Homo sapiens; IFNγ differentiated THP-1 cells, opsonized pHrodo Escherichia coli, 3 hours; read-out: IC50 upon phagocytosis inhibition
Description: THP-1 cells (2×10^5 cells/ml), which were human monocytoid cells, were cultured in the presence of 10 ng/ml IFNγ for 2 days, and they were induced to differentiate into macrophage-like cells. The differentiation-induced THP-1 cells were recovered, and the cells (5×10^4 cells/well) were then allowed to react with a predetermined concentration of test compound at room temperature for 30 minutes. Thereafter, Escherichia coli (Life Technologies) labeled with a pH-sensitive dye (pHrodo) was subjected to opsonization using an anti-Escherichia coli antibody (Life Technologies). Then, the resultant was added to the THP-1 cells obtained above, followed by incubation at 37° C. for 3 hours. Opsonized Escherichia coli and cell-permeable fluorescent dye (Calcein AM) were simultaneously added thereto, followed by quantitative determination of phagocytosis of opsonized Escherichia coli in viable cells using an IN Cell Analyzer.

[3] = system: THP-1 cells (TNFα secretion on human IgG-coated plate); assay: TNFα generation assay; type: cell-based; conditions: IFN-γ differentiated THP-1 cells, 7 hours, AlphaLISA, read-out: IC50 of TNFα generation inhibitory activity
Method in brief: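 Secreted TNFα was measured by AlphaLISA after 7 h of culture on human IgG-coated wells (coating at 10 μg/ml), with 5×10^4 cells/well. Before plating, the cells had been treated with compound for 30 min at room temperature. The cells were macrophage-like THP-1, produced by a 2-day exposure to 10 ng/ml IFN-γ.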

| SMILES | IC50 [1] [nM] | IC50 [2] [nM] | IC50 [3] [nM] |
| --- | --- | --- | --- |
| CCC[C@@H](Nc1nc(Nc2cnc(OC)c(-n3ccnn3)c2)c(C(N)=O)cc1F)[C@H](C)N [Example 2-205, 6-(((2S,3R)-2-aminohexan-3-yl)amino)-5-fluoro-2-((6-methoxy-5-(1H-1,2,3-triazol-1-yl)pyridin-3-yl)amino)nicotinamide] | 10 to 50 | 1000 to 3000 |  |
| CC[C@H](N)[C@@H](CC)Nc1nc(Nc2ccc3c(c2)c(OC)nn3C)c(C(N)=O)cc1F [Example 2-85, 6-(((3R,4S)-4-aminohexan-3-yl)amino)-5-fluoro-2-((3-methoxy-1-methyl-1H-indazol-5-yl)amino)nicotinamide] | 10 to 50 | < 1000 |  |
| NC[C@@H](Cc1ccccc1)Nc1nc(Nc2ccc(N3CCOCC3)nc2)c(C(N)=O)cc1F [Example 2-420, (R)-6-((1-amino-3-phenylpropan-2-yl)amino)-5-fluoro-2-((6-morpholinopyridin-3-yl)amino)nicotinamide] |  | < 1000 |  |
| Cc1ccc(Nc2nc(N[C@@H]3CCOC[C@@H]3N)c(F)cc2C(N)=O)cn1 [Example 2-219, 6-(((3R,4R)-3-aminotetrahydro-2H-pyran-4-yl)amino)-5-fluoro-2-((6-methylpyridin-3-yl)amino)nicotinamide] | 10 to 50 |  | 130 to 200 |
| Cc1ncc(Nc2nc(N[C@H](C3CC3)[C@H](C)N)c(F)cc2C(N)=O)cc1F [Example 2-220, 6-(((1R,2S)-2-amino-1-cyclopropylpropyl)amino)-5-fluoro-2-((5-fluoro-6-methylpyridin-3-yl)amino)nicotinamide] | 10 to 50 |  | 130 to 200 |
| CCOC[C@@H](Nc1nc(Nc2cccc3c2cnn3CC)c(C(N)=O)cc1F)[C@H](C)N [Example 2-180, 6-(((2S,3S)-3-amino-1-ethoxybutan-2-yl)amino)-2-((1-ethyl-1H-indazol-4-yl)amino)-5-fluoronicotinamide] | 10 to 50 |  | 130 to 200 |
| Cn1nc(N2CCCC2)c2cc(Nc3nc(N[C@@H]4CCCC[C@@H]4N)c(F)cc3C(N)=O)ccc21 [Example 2-428, 6-(((1R,2S)-2-aminocyclohexyl)amino)-5-fluoro-2-((1-methyl-3-(pyrrolidin-1-1)-1H-indazol-5-yl)amino)nicotinamide] | 10 to 50 |  | 130 to 200 |
| CC[C@@H](Nc1nc(Nc2cncc(-n3cc(C)cn3)c2)c(C(N)=O)cc1F)[C@H](C)N [Example 2-521, 6-(((2S,3R)-2-aminopentan-3-yl)amino)-5-fluoro-2-((5-(4-methyl-1H-pyrazol-1-yl)pyridin-3-yl)amino)nicotinamide] | 10 to 50 |  | 65 to 130 |
| CC[C@H](N)[C@@H](C)Nc1nc(Nc2ccc3c(c2)c(OC)nn3CCOC)c(C(N)=O)cc1F [Example 2-129, 6-(((2R,3S)-3-aminopentan-2-yl)amino)-5-fluoro-2-((3-methoxy-1-(2-methoxyethyl)-1H-indazol-5-yl)amino)nicotinamide] | 10 to 50 |  | 130 to 200 |
| CC[C@H](N)[C@@H](C)Nc1nc(Nc2ccc3c(c2)c(OC)nn3C)c(C(N)=O)cc1F [Example 2-84, 6-(((2R,3S)-3-aminopentan-2-yl)amino)-5-fluoro-2-((3-methoxy-1-methyl-1H-indazol-5-yl)amino)nicotinamide] | < 10 |  | 130 to 200 |
| COCCn1ncc2c(Nc3nc(N[C@H](C4CC4)[C@H](C)N)c(F)cc3C(N)=O)cc(F)cc21 [Example 2-377, 6-(((1R,2S)-2-amino-1-cyclopropylpropyl)amino)-5-fluoro-2-((6-fluoro-1-(2-methoxyethyl)-1H-indazol-4-yl)amino)nicotinamide] | < 10 |  | 65 to 130 |

The remaining lines, values ahead:

| IC50 [1] [nM] | IC50 [2] [nM] | IC50 [3] [nM] | SMILES |
| --- | --- | --- | --- |
| < 10 | 1000 to 3000 |  | Cc1ncc(Nc2nc(N[C@@H]([C@H](C)N)[C@H]3CC3(C)C)c(F)cc2C(N)=O)cc1-n1nccn1 [Example 2-380, 6-(((1R,2S)-2-amino-1-((S)-2,2-dimethylcyclopropyl)propyl)amino)-5-fluoro-2-((6-methyl-5-(2H-1,2,3-triazol-2-yl)pyridin-3-yl)amino)nicotinamide] |
| < 10 |  | 130 to 200 | COCCn1nc(C)c2cc(Nc3nc(N[C@@H]4CCOC[C@@H]4N)c(F)cc3C(N)=O)ccc21 [Example 2-327, 6-(((3R,4R)-3-aminotetrahydro-2H-pyran-4-yl)amino)-5-fluoro-2-((1-(2-methoxyethyl)-3-methyl-1H-indazol-5-yl)amino)nicotinamide] |
| < 10 |  | 130 to 200 | CCn1nc(OC)c2cc(Nc3nc(N[C@H](C4CC4)[C@H](C)N)c(F)cc3C(N)=O)ccc21 [Example 2-73, 6-(((1R,2S)-2-amino-1-cyclopropylpropyl)amino)-2-((1-ethyl-3-methoxy-1H-indazol-5-yl)amino)-5-fluoronicotinamide] |
| < 10 |  | 65 to 130 | COCCn1nc(OC)c2cc(Nc3nc(N[C@@H]4CCOC[C@@H]4N)c(F)cc3C(N)=O)ccc21 [Example 2-329, 6-(((3R,4R)-3-aminotetrahydro-2H-pyran-4-yl)amino)-5-fluoro-2-((3-methoxy-1-(2-methoxyethyl)-1H-indazol-5-yl)amino)nicotinamide] |
| < 10 |  | 130 to 200 | COc1nn(C)c2ncc(Nc3nc(N[C@H](CC(C)C)[C@H](C)N)c(F)cc3C(N)=O)cc12 [Example 2-255, 6-(((2S,3R)-2-amino-5-methylhexan-3-yl)amino)-5-fluoro-2-((3-methoxy-1-methyl-1H-pyrazolo[3,4-b]pyridin-5-yl)amino)nicotinamide] |
| < 10 |  | 65 to 130 | CCn1ncc2cc(Nc3nc(N[C@H](c4ccccn4)[C@H](C)N)c(F)cc3C(N)=O)ccc21 [Example 2-381] |
| < 10 |  | 130 to 200 | COc1nn(CC(F)F)c2ccc(Nc3nc(N[C@H](CC(C)C)[C@H](C)N)c(F)cc3C(N)=O)cc12 [Example 2-54, 6-(((2S,3R)-2-amino-5-methylhexan-3-yl)amino)-2-((1-(2,2-difluoroethyl)-3-methoxy-1H-indazol-5-yl)amino)-5-fluoronicotinamide] |
| < 10 |  | 65 to 130 | COc1cc(Nc2nc(N[C@H](c3cccc(F)c3)[C@H](C)N)c(F)cc2C(N)=O)cc(OC)n1 [Example 2-414] |
| < 10 |  | 130 to 200 | Cc1cnn(-c2cncc(Nc3nc(N[C@H](C4CC4)[C@H](C)N)c(F)cc3C(N)=O)c2)c1 [Example 2-519, 6-(((1R,2S)-2-amino-1-cyclopropylpropyl)amino)-5-fluoro-2-((5-(4-methyl-1H-pyrazol-1-yl)pyridin-3-yl)amino)nicotinamide] |
| < 10 |  | 65 to 130 | COc1nn(C)c2ncc(Nc3nc(N[C@H](C4CC4)[C@H](C)N)c(F)cc3C(N)=O)cc12 [Example 2-253, 6-(((1R,2S)-2-amino-1-cyclopropylpropyl)amino)-5-fluoro-2-((3-methoxy-1-methyl-1H-pyrazolo[3,4-b]pyridin-5-yl)amino)nicotinamide] |
| < 10 |  | 65 to 130 | CC[C@@H](Nc1nc(Nc2cccc(C(C)=O)c2)c(C(N)=O)cc1F)[C@H](C)N [Example 2-478, 2-((3-acetylphenyl)amino)-6-(((2S,3R)-2-aminopentan-3-yl)amino)-5-fluoronicotinamide] |
| < 10 |  | 65 to 130 | CC[C@@H](Nc1nc(Nc2ccc3c(c2)c(OC)nn3CCOC)c(C(N)=O)cc1F)[C@H](C)N [Example 2-125, 6-(((2S,3R)-2-aminopentan-3-yl)amino)-5-fluoro-2-((3-methoxy-1-(2-methoxyethyl)-1H-indazol-5-yl)amino)nicotinamide] |
| < 10 |  | 65 to 130 | CC(=O)c1cccc(Nc2nc(N[C@H](C3CC3)[C@H](C)N)c(F)cc2C(N)=O)c1 [Example 2-482, 2-((3-acetylphenyl)amino)-6-(((1R,2S)-2-amino-1-cyclopropylpropyl)amino)-5-fluoronicotinamide] |
| < 10 |  | 65 to 130 | CCOC[C@@H](Nc1nc(Nc2ccc3c(cnn3CC)c2)c(C(N)=O)cc1F)[C@H](C)N [Example 2-182, 6-(((2S,3S)-3-amino-1-ethoxybutan-2-yl)amino)-2-((1-ethyl-1H-indazol-5-yl)amino)-5-fluoronicotinamide] |
| < 10 |  | 130 to 200 | COc1cc(Nc2nc(N[C@H](C3CC3)[C@H](C)N)c(F)cc2C(N)=O)ccc1C [Example 2-49, 6-(((1R,2S)-2-amino-1-cyclopropylpropyl)amino)-5-fluoro-2-((3-methoxy-4-methylphenyl)amino)nicotinamide] |
| < 10 |  | 65 to 130 | CCC[C@@H](Nc1nc(Nc2ccc3c(c2)c(OC)nn3C)c(C(N)=O)cc1F)[C@H](C)N [Example 2-80, 6-(((2S,3R)-2-aminohexan-3-yl)amino)-5-fluoro-2-((3-methoxy-1-methyl-1H-indazol-5-yl)amino)nicotinamide] |
